# Laboratory results taken from patent US5202348A, “Thiarubrine antifungal agents” (The University of British Columbia, priority 1990, dated 1993).
# Where two headings read alike, the source gives them in different places.
# Assays:
# Coenorhabditis elogans = settings: cited from earlier work
# C. albicans [1] = assay: LC50 (24 hrs.), doses required to inhibit growth in 50%, different method; type: cell-based, Candida albicans; settings: Candida albicans, 24 h, read-out: LC50 (24 hrs.), dose required to inhibit growth in 50%
# Description: Doses Required to Inhibit Growth of C. albicans
# in 50% During 24 hrs. (ng/ml)
# Aspergillus fumigatus [2] = assay: Sensitivity of Aspergillus fumigatus, agar diffusion method; type: cell-based; settings: read-out: Zone of Growth Inhibition
# Description: Results were obtained by agar diffusion method. Disc diameter - 6 mm. -* = no zone over disc diameter.
# Aspergillus fumigatus [3] = settings: concentrations comparable to those of amphotericin B; cited from earlier work
# [4] = test system: murine cytomegalovirus and Sindbis virus; settings: phototoxic activity; cited from earlier work
# P815 mastocytoma = assay: LC50 (24 hrs.), doses required to inhibit growth in 50%, different method; type: cell-based; settings: Mus musculus, P815, 24 h, read-out: LC50 (24 hrs.), dose required to inhibit growth in 50%
# C. albicans [5] = assay: Growth inhibition of C. albicans during 24 hours exposure; type: cell-based, Candida albicans; settings: Candida albicans, 24 h, read-out: Minimal concentration causing 100% growth inhibition
# murine cytomegalovirus = settings: only in presence of UV-A radiation; cited from earlier work
# mouse cells = settings: cited from earlier work
# Candida albicans = settings: concentrations comparable to those of amphotericin B; cited from earlier work
# Sindbis virus = settings: only in presence of UV-A radiation; cited from earlier work
# bacteriophage T4 = settings: in UV-A only; cited from earlier work
# P. aeruginosa = assay: Growth inhibition of P. aeruginosa during 24 hours exposure; type: cell-based, Pseudomonas aeruginosa; settings: Pseudomonas aeruginosa, 24 h
# Procedure: (§1) Doses inhibiting growth in 50% were estimated by plotting concentration o
# (§2) a logarithmic scale and percent of growth inhibition for 24 hours exposur
# (§3) on a probability scale.
# P815 = assay: Growth inhibition of P815 mastocytoma during 24 hours exposure; type: cell-based, Mouse
# Procedure: (§4) P815 = Mouse mastocytoma […]
# as §2, §3
# [6] = as above; type: cell-based, Mouse; settings: mouse, p815 cells
# Procedure: as §4, §2, §3
# E. coli [7] = assay: Growth inhibition of E. coli during 24 hours exposure; type: cell-based, Escherichia coli; settings: Escherichia coli, 24 h, read-out: Minimal concentration causing 100% growth inhibition
# [8] = Growth inhibition of 3T3 during 24 hours exposure; type: cell-based, Mouse; settings: mouse, 3t3 cells; Table 2; read-out: Toxicity Index, LC50 3T3 / LC50 C. albicans
# Procedure: (§5) 3T3 = Mouse fibroblasts
# as §1, §2, §3
# 3T3 = assay: Growth inhibition of 3T3 during 24 hours exposure; type: cell-based, Mouse; settings: Mus musculus, NIH3T3, 24 h, read-out: Concentration causing 50% growth inhibition
# Procedure: as §5, §1, §2, §3
# [9] = Growth inhibition of L1210 during 24 hours exposure; type: cell-based, Mouse; settings: mouse, l1210 cells; Table 2; read-out: Toxicity Index, LC50 L1210 / C. albicans
# Procedure: (§6) L1210 = Mouse lymphocytic leukemia
# as §1, §2, §3
# L1210 = assay: as above; type: cell-based, Mouse; settings: Mus musculus, L1210, 24 h, read-out: Concentration causing 50% growth inhibition
# Procedure: as §6, §1, §2, §3
# E. coli [10] = assay: Growth inhibition of E. coli during 24 hours exposure; type: cell-based, Escherichia coli; settings: Escherichia coli, 24 h, read-out: Minimal concentration causing 50% growth inhibition
# Procedure: as §1, §2, §3
# Candida = assay: Anti-Candida activity (summary); type: cell-based; settings: Table 14;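 note: Letter grades where Y means active and y means less active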
# bacteriophage M13 = settings: cited from earlier work
# Aspergillus = assay: Anti-Aspergillus activity (summary); type: cell-based; settings: Table 14;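 note: Letter grades where Y means active and y means less active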
# [11] = Growth inhibition of WEHI-3 during 24 hours exposure; type: cell-based, Mouse; settings: mouse, wehi-3 cells; Table 2; read-out: Toxicity Index, LC50 WEHI-3 / LC50 C. albicans
# Procedure: (§7) WEHl3 = Mouse myelomonocyte
# as §1, §2, §3
# WEHI-3 = assay: as above; type: cell-based, Mouse; settings: Mus musculus, WEHI-3, 24 h, read-out: Concentration causing 50% growth inhibition
# Procedure: as §7, §1, §2, §3
# Hycobacteria sp. = settings: cited from earlier work
# bacteria = assay: Anti-bacterial activity (summary); type: cell-based; settings: Table 14
# Escherichia coli = settings: cited from earlier work
# C. albicans [12] = assay: Growth inhibition of C. albicans during 24 hours exposure; type: cell-based, Candida albicans; settings: Candida albicans, 24 h
# Procedure: as §1, §2, §3
# Bacillus subtilis = settings: cited from earlier work
# [13] = read-out: Minimal concentration causing 50% growth inhibition
smiles,measurement,setting,value
"C=CC#CC#CC1=CC=C(C#CC)SS1 [Thiarubrine A, 3 - (1- -propynyl) 6 (5-hexen-3-yn-1-ynyl)1,2-dithiacyclohexa-3,5-diene]",Cytotoxic activity,Coenorhabditis elogans,cytotoxic activity
same,IC50,C. albicans [1],0.04 µg/mL
same,zone of inhibition at 0.01 µg/disc,Aspergillus fumigatus [2],8 mm
same,zone of inhibition at 0.1 µg/disc,Aspergillus fumigatus [2],19 mm
same,zone of inhibition at 1 µg/disc,Aspergillus fumigatus [2],27 mm
same,zone of inhibition at 10 µg/disc,Aspergillus fumigatus [2],27 mm
same,Antifungal activity,Aspergillus fumigatus [3],strong antifungal activity
same,Order of potency,[4],alpha-terthienyl thiarubrine-A > phenylheptatriyne > ACBP-thiophene > thiophene-A
same,IC50,P815 mastocytoma,0.081 µg/mL
same,MIC,C. albicans [5],0.16 µg/mL
same,Sensitivity of virus,murine cytomegalovirus,extremely sensitive
same,Sensitivity of mouse cells,mouse cells; in presence of UV-A,moderately sensitive
same,Sensitivity of mouse cells,mouse cells; in the dark,somewhat less sensitive
same,Antifungal activity,Candida albicans,strong antifungal activity
same,Sensitivity of virus,Sindbis virus,extremely sensitive
same,Effect on bacteriophage,bacteriophage T4,slightly affected
same,IC50,P. aeruginosa; [13],0.68 µg/mL
same,MIC,P. aeruginosa; read-out: Minimal concentration causing 100% growth inhibition,2.5 µg/mL
same,"Ratio of concentration needed to inhibit growth in 50%, P815 vs C. albicans","P815; 50% growth inhibition, Table 4",the same
same,IC50,"P815; Mus musculus, P815, 24 h, read-out: Concentration causing 50% growth inhibition",0.035 µg/mL
same,IC50,"P815; Mus musculus, P815, 24 h, read-out: Minimal concentration causing 50% growth inhibition",0.035 µg/mL
same,IC100,"P815; Mus musculus, P815, 24 h, read-out: Minimal concentration causing 100% growth inhibition",0.625 µg/mL
same,selectivity ratio at 24 h,"[6]; 100% growth inhibition, Table 3, read-out: Ratio of minimal concentration causing 100% growth inhibition, P815 line vs C. albicans",~4
same,selectivity ratio at 24 h,"[6]; Table 2, read-out: Toxicity Index, LC50 P815 / LC50 C. albicans",1
same,MIC,E. coli [7],0.625 µg/mL
same,selectivity ratio at 24 h,[8],12
same,IC50,3T3,0.45 µg/mL
same,selectivity ratio at 24 h,[9],1
same,IC50,L1210,0.035 µg/mL
same,IC50,E. coli [10],0.18 µg/mL
same,Anti-Candida,Candida,Y
same,Effect on bacteriophage,bacteriophage M13,completely unaffected
same,Anti-Aspergillus,Aspergillus,Y
same,selectivity ratio at 24 h,[11],1
same,IC50,WEHI-3,0.027 µg/mL
same,Cytotoxic activity,Hycobacteria sp.,cytotoxic activity
same,Anti-bacterial,bacteria,Y
same,Cytotoxic activity,Escherichia coli,cytotoxic activity
same,IC50,C. albicans [12]; read-out: Concentration causing 50% growth inhibition,0.028 µg/mL
same,IC50,C. albicans [12]; [13],0.028 µg/mL
same,Cytotoxic activity,Bacillus subtilis,cytotoxic activity
